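These data come from cells grown in 96-well plates and exposed to compound for 48 hours at five concentrations. Abbreviation: GI50, concentration required for 50% inhibition of growth. TGI: concentration producing complete growth inhibition.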
Key:
Experiment in all cases: NCI-60 cell line screen, 48 h
MALME-3M melanoma = system: MALME-3M melanoma
U251 CNS = system: U251 CNS
SN12C renal = system: SN12C renal
UACC-257 melanoma = system: UACC-257 melanoma
OVCAR-8 ovarian = system: OVCAR-8 ovarian
TK-10 renal = system: TK-10 renal
IGROV1 ovarian = system: IGROV1 ovarian
RPMI-8226 leukemia = system: RPMI-8226 leukemia
MCF7 breast = system: MCF7 breast
MDA-MB-435 = system: MDA-MB-435

SMILES	TGI (MALME-3M melanoma)	TGI (U251 CNS)	TGI (SN12C renal)	TGI (UACC-257 melanoma)	TGI (OVCAR-8 ovarian)	TGI (TK-10 renal)	TGI (IGROV1 ovarian)	TGI (RPMI-8226 leukemia)	TGI (MCF7 breast)	TGI (MDA-MB-435)	GI50 (MALME-3M melanoma)	GI50 (U251 CNS)	GI50 (MCF7 breast)	GI50 (SN12C renal)	GI50 (UACC-257 melanoma)	GI50 (OVCAR-8 ovarian)	GI50 (MDA-MB-435)	GI50 (TK-10 renal)	GI50 (IGROV1 ovarian)	GI50 (RPMI-8226 leukemia)
CN=c1ss/c(=N\C(=S)N(C)C)n1C1CCCCC1	> 31.6 µM	> 31.6 µM	> 31.6 µM	> 31.6 µM	> 31.6 µM	> 31.6 µM	> 31.6 µM	> 100 µM												
CN(C)CCCNC(=O)c1cccc2nc3ccccc3nc12	19.3 µM	> 73.4 µM	> 100 µM	19.5 µM	> 82.2 µM	> 100 µM	> 82.2 µM	> 100 µM												
CC1=C(C(=O)Nc2cccc(C(F)(F)F)c2)C(c2ccccc2F)C(C(=O)Nc2cccc(C(F)(F)F)c2)=C(C)N1	21.8 µM	27.1 µM	23.9 µM	22.1 µM	28.2 µM	25.7 µM	43.7 µM	10.1 µM												
Nc1nc2c(c(=O)[nH]1)N=C(COP(=O)(O)OP(=O)(O)O)CN2	> 100 µM	> 100 µM	> 100 µM	> 100 µM	> 100 µM	> 100 µM	> 100 µM	> 100 µM	> 100 µM	> 100 µM										
CC(=O)Nc1c(I)c(C(=O)O)c(I)c(N(C)C(C)=O)c1I	> 100 µM	> 100 µM	> 100 µM	> 100 µM	> 100 µM	> 100 µM	> 100 µM	> 100 µM	> 100 µM	> 100 µM	> 100 µM	> 100 µM	> 100 µM	> 100 µM	> 100 µM	> 100 µM	> 100 µM	> 100 µM	> 100 µM	> 100 µM
C=C(CS(=O)(=O)c1ccccc1)C(=O)OCC	39.1 µM	30.7 µM	31.1 µM	25.9 µM	22.4 µM	31.8 µM	38.8 µM													
Cc1cc(C(=O)N2CCN(C)CC2)c2c(=O)n(-c3ccccc3)c(=O)n(CC(O)CN3CCN(c4ncccn4)CC3)c2n1 (stereo unspecified)	> 100 µM	> 100 µM	> 100 µM			> 100 µM	> 100 µM	> 100 µM	> 100 µM	> 100 µM	> 100 µM	> 100 µM	> 100 µM	> 100 µM			> 100 µM	> 100 µM	> 100 µM	> 100 µM
O=Cc1c[nH]c2ccc(-c3csc4ccccc34)cc12	37.5 µM	21 µM		> 100 µM	> 100 µM	16.7 µM	59.9 µM	7.49 µM	> 100 µM	3.66 µM	4.39 µM	3.64 µM	3.48 µM		13.2 µM	3.47 µM	1.24 µM	3.13 µM	3.81 µM	1.54 µM
COc1cc(-c2nccc3[nH]c(-c4cccc5[nH]ccc45)nc23)cc(OC)c1OC	15.9 µM	13 µM	18.1 µM		14.1 µM	24.8 µM	23.2 µM	2.91 µM	14.4 µM	< 0.01 µM	2.71 µM	< 0.01 µM	< 0.01 µM	< 0.01 µM		< 0.01 µM	< 0.01 µM	12.1 µM	< 0.01 µM	< 0.01 µM
COc1cc(C2CC(=O)c3c(C)nn(-c4nc5ccccc5[nH]4)c3C2)cc(OC)c1OC (stereo unspecified)				> 100 µM				> 100 µM	> 100 µM	> 100 µM			> 100 µM		> 100 µM		> 100 µM			> 100 µM
COc1ccc2oc(-c3cc4cc(OC)ccc4o3)cc2c1	> 100 µM		> 100 µM	> 100 µM	> 100 µM	> 100 µM	> 100 µM	> 100 µM												
COC(=O)[C@H]1CC(=O)C=C2CCCC21 (stereo partly specified)	> 100 µM	> 100 µM	> 100 µM	> 100 µM	> 100 µM	> 100 µM	> 100 µM	> 100 µM												
CC[C@@]1(OC(=O)C(N)CCC(=O)O)C(=O)OCc2c1cc1n(c2=O)Cc2cc3ccccc3nc2-1 (stereo partly specified)	2.79 µM	1.98 µM	1.34 µM	1.63 µM	10.7 µM	> 100 µM	4.35 µM	2.94 µM	> 100 µM											
CC(C)(C)C1CCP(=O)(c2ccccc2)CC1 (stereo unspecified)	> 100 µM	> 100 µM	> 100 µM	> 100 µM	> 100 µM	> 100 µM	> 100 µM	> 100 µM												
Cc1ccc(C)c(NC(=O)C(=O)CC(=O)c2cccc3ccccc23)c1	> 100 µM	> 100 µM	> 100 µM	> 100 µM	> 100 µM	> 100 µM	> 100 µM	> 100 µM												
Cc1ccc2nc3sc(=O)sc3nc2c1		30.8 µM	29 µM	32.1 µM	28.6 µM	30 µM	31.7 µM	59.1 µM	31.4 µM	29.8 µM										
Cc1ccc(C2NC(=S)N3C(c4ccc(C)cc4)NC(=S)N23)cc1 (stereo unspecified)	28.1 µM	14.3 µM	19.4 µM	22.6 µM	25.1 µM	26.9 µM	22 µM		12.9 µM	4.14 µM	12.4 µM	3.91 µM	2.73 µM	5.88 µM	10.3 µM	7.36 µM	0.666 µM	12.3 µM	8.5 µM	
O=C1c2ccccc2-c2c1c1c(O)cccc1n2CCCc1ccccc1		> 100 µM	67.9 µM	50.8 µM	> 100 µM	56.7 µM	> 100 µM	51.9 µM	> 100 µM	> 100 µM		26.4 µM	48.4 µM	14 µM	19.7 µM	31.7 µM	16.7 µM	10.1 µM	17.1 µM	13.7 µM
Cc1cn(C2CC(N=[N+]=[N-])C(CO)O2)c(=O)[nH]c1=O (stereo unspecified)	> 1000 µM		> 1000 µM	> 1000 µM	> 1000 µM	> 1000 µM	> 1000 µM	184 µM	> 1000 µM	> 1000 µM	> 1000 µM		50.1 µM	> 1000 µM	> 1000 µM				> 1000 µM	20.4 µM
